Measurements from EP1978972B1, “USE OF ALKYLGLUCOSIDE ESTERS AS BETA-DEFENSIN INDUCERS” (Pierre Fabre Dermo-Cosmétique, priority 2006, dated 2007).

What was measured:
hBD-2 = type: cell-based, human; settings: skin explant, systemic
Text: Il est connu de WO 97/45101 que les esters d'α-alkylglucoside peuvent être utilisés comme agent anti-microbien et/ou anti-fongique pour agir en tant que conservateur dans une composition, pour la préserver d'un développement microbien. D'autre part, les propriétés moussantes des esters de méthyl glucose sont décrites dans Desai et al (« Sofw Journal Seife, Oele, Fette, Wachse, Verlag für chemische Industrie » 1991). • Modèle cellulaire : lignée cellulaire HaCat, kératynocytes d'origine humaine, primoculture de kératinocytes humains • Modèle tissulaire : • Explants de peau normale provenant de déchet opératoire de chirurgie esthétique • Explants de gencive normale provenant de déchet opératoire de chirurgie implantatoire ou d'épithélium gingival reconstruit à partir de cellules épithéliales orales primaires • ➢ Les cellules HaCat sont ensemencées et cultivées en plaque 6 puits à 200 000 cellules/puits sous un volume de 2 ml de milieu de culture DMEM 1640 : (Ref: Invitrogen) complémenté par 10 % de sérum de veau foetal (SVF, Ref : CH30160.02 Perbio-Hyclone) pendant 18 h (sur la nuit). • ➢ A T0 les cellules sont lavées avec du tampon Phosphate (PBS, Ref: 52100-039 Invitrogen) puis privées en sérum pour les rendre quiescentes pendant 24 h (ralentissement de leur croissance et élimination de toute trace de facteurs susceptibles de perturber les effets induits par les traitements ultérieurs). • ➢ A T0+24 h les cellules sont traitées par des cytokines pro-inflammatoires (TNF-α à 10 ng/ml, IL1-β à 10 ng/ml) ou des éléments bactériens (LPS à 50 ng/ml, SEB à 100 ng/ml) ou des actifs potentiels de type « alkyle mono- ou di-ester d'α,β-butylglucoside » dilués dans du DMEM (1 ml/puits); La durée du traitement est de 3 h à 37°C. • ➢ Les kératinocytes primaires sont préparés à partir de peau normale provenant de déchet opératoire de chirurgie esthétique. Ils sont ensemencés et cultivés en plaque 24 puits à 60 000 cellules/puits sous un volume de 0,5 ml de milieu de culture KSFM (Ref : 37010 Invitrogen) complémenté par de l'EGF (Epidermal Growth Factor) à 1,5 ng/ml et du BPE (bovine pituitary extract) à 25 µg/ml pendant 24 h. • ➢ A J0, le milieu est remplacé par 0,5 ml de milieu KSFM complet, additionné de 1,2 nM de calcium. • ➢ A J+3, les cellules sont traitées par des cytokines pro-inflammatoires TNF-α et IL 1-β à 10 ng/ml ou des actifs potentiels de type « alkyle mono- ou di-ester d'α,β-butylglucoside » dilués dans 0,3 ml de milieu KSFM complet, en présence de 1,2 nM de calcium. […]

S. aureus = assay: Colonisation of skin explant by exogenous S. aureus during 24 h after adhesion step; type: cell-based, Staphylococcus aureus; settings: systemic treatment, in words
Experimental: Il est par ailleurs possible d'observer la colonisation de l'explant par le germe exogène (S. aureus) après l'étape d'adhésion pendant 24 h. […] L'effet inverse est observé avec le traitement par le TNF-α, cytokine pro-inflammatoire, qui après avoir entraîné une forte chute de l'adhésion de S. aureus (Cf.III.4.2) ne permet pas une limitation de la croissance du germe pathogène sur l'explant et ceci au dépend du germe commensal S. epidermidis.
La figure 12 annexée illustre la comparaison de la colonisation d'une souche contaminante, S. aureus, avec celle d'une souche commensale, S. epidermis.

In the case of laurate de butylglucoside [αβ-LBG brut], the “incubation time from which hBD-2 induction is effective” value (hBD-2) is reported as ≤ 1 h, the “synthèse des transcrits hBD-2” value (hBD-2; 30 µg/ml, in words) is reported as “capable d'induire la synthèse des transcrits hBD-2” and the “multiplication / croissance du germe pathogène (S. aureus) sur l'explant” value (S. aureus) is reported as “ralentit la multiplication du germe pathogène”.
